Laboratory results from US20120122860A1, “SOLID FORMS OF SULFONAMIDES AND AMINO ACIDS” (Plexxikon, Inc., priority 2009, published 2012).

Columns and labels:
Kdr = Kdr (Homo sapiens, UniProt P35968); assay: Kinase activity assay, Kdr
C-Raf = C-Raf (Homo sapiens, UniProt P04049); assay: Kinase activity assay, C-Raf
B-Raf V600E = B-Raf V600E (Homo sapiens, UniProt P15056, V600E); assay: Kinase activity assay, B-Raf V600E; type: biochemical; conditions: read-out: activity toward kinase B-Raf V600E, IC50
B-Raf = B-Raf (Homo sapiens, UniProt P15056); assay: Kinase activity assay, B-Raf; type: biochemical; conditions: read-out: activity toward kinase B-Raf, IC50
B-Raf, sequence (P15056 whole entry): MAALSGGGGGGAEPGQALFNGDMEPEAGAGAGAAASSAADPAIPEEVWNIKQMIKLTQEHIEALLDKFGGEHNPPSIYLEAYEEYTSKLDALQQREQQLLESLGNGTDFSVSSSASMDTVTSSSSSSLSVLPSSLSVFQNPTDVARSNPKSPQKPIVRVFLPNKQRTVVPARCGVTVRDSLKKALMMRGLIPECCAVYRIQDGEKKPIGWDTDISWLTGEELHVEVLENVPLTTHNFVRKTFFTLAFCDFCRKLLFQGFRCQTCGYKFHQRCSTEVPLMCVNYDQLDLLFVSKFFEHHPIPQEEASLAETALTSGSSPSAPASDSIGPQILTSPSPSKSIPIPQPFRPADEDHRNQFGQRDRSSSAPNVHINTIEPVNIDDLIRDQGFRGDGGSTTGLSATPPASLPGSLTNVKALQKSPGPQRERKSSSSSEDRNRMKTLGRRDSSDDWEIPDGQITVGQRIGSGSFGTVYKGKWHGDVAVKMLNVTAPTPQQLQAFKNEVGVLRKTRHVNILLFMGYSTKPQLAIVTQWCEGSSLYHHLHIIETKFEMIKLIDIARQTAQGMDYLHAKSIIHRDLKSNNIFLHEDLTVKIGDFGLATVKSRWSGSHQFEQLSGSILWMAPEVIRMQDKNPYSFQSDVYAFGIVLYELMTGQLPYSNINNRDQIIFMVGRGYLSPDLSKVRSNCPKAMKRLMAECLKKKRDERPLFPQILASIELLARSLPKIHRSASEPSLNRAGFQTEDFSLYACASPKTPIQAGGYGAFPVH

C-Raf, sequence (P04049 whole entry): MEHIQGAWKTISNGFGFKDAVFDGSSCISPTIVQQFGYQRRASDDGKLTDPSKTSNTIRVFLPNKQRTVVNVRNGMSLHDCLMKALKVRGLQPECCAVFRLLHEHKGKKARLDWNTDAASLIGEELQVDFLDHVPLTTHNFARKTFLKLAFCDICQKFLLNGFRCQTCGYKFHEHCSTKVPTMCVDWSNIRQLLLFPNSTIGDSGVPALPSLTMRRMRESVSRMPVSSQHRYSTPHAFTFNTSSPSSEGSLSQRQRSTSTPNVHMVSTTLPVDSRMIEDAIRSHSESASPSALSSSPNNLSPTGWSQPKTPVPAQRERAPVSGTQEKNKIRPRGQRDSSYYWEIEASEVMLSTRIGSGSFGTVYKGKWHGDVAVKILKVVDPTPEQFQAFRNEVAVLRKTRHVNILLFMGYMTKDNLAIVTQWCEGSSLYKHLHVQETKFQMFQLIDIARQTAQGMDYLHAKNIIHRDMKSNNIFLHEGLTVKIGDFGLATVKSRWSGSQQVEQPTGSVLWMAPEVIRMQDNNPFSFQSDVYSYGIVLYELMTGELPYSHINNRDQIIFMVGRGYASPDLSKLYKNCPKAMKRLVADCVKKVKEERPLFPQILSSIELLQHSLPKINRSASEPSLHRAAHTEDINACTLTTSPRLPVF
Kdr, sequence (P35968 20-1356): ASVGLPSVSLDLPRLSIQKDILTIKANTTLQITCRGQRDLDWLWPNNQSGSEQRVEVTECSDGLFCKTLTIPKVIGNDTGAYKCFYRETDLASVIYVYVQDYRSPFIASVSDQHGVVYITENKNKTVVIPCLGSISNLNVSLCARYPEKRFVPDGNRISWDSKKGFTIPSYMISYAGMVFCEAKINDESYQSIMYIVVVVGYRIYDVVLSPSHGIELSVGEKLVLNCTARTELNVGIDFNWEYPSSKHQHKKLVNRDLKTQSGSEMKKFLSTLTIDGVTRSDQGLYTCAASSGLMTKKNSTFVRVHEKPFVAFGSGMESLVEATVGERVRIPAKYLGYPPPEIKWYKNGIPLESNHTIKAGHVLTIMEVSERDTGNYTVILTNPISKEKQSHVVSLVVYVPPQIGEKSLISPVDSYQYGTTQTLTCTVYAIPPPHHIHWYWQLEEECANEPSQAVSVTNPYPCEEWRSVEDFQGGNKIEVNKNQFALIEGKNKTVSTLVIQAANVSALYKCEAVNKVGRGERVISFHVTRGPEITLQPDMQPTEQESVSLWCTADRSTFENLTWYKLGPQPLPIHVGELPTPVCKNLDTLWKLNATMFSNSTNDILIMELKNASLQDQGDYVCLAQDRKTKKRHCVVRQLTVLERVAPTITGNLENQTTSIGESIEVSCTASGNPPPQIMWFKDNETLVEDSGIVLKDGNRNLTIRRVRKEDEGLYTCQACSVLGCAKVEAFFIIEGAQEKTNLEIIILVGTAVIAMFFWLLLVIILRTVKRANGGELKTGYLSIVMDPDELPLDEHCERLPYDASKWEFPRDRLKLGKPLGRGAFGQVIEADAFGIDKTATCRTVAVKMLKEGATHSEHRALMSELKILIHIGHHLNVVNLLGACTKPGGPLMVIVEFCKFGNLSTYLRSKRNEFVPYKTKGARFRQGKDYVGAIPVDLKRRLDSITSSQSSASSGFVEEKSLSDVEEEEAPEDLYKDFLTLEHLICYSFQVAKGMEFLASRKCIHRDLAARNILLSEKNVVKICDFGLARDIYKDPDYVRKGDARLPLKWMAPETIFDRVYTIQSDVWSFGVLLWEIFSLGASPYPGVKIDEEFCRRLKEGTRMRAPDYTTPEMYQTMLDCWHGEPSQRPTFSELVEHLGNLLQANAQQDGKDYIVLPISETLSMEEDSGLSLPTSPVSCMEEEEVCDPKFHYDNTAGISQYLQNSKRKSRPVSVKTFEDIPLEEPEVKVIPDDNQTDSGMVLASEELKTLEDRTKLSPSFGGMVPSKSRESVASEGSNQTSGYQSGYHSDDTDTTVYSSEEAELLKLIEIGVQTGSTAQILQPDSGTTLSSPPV
B-Raf V600E, sequence (P15056 whole entry V600E): as the sequence (P15056 whole entry) above, with V600E counted along it

Row | Compound | IC50 (Kdr) [µM] | IC50 (C-Raf) [µM] | IC50 (B-Raf V600E) [µM] | IC50 (B-Raf) [µM]
1 | O=C(c1cccc(NS(=O)(=O)C2CCCC2)c1)c1c[nH]c2ncc(F)cc12 [P-2463, Cyclopentanesulfonic acid [3-(5-fluoro-1H-pyrrolo[2,3-b]pyridine-3-carbonyl)-phenyl]-amide] | ≤ 10 |  |  | 
2 | COc1ccnc2[nH]cc(C(=O)c3c(F)ccc(NS(=O)(=O)c4ncn[nH]4)c3F)c12 [P-2068, 2H-[1,2,4]Triazole-3-sulfonic acid [2,4-difluoro-3-(4-methoxy-1H-pyrrolo[2,3-b]pyridine-3-carbonyl)-phenyl]-amide] |  | ≤ 10 | ≤ 10 | 
3 | N#Cc1cnc2[nH]cc(C(=O)c3cccc(NS(=O)(=O)Cc4ccncc4)c3F)c2c1 [P-2097, N-[3-(5-Cyano-1H-pyrrolo[2,3-b]pyridine-3-carbonyl)-2-fluoro-phenyl]-C-pyridin-4-yl-methanesulfonamide] | ≤ 10 |  | ≤ 10 | 
4 | N#Cc1cnc2[nH]cc(C(=O)c3cccc(NS(=O)(=O)N4CCOCC4)c3F)c2c1 [P-2421, Morpholine-4-sulfonic acid [3-(5-cyano-1H-pyrrolo[2,3-b]pyridine-3-carbonyl)-2-fluoro-phenyl]-amide] |  | ≤ 10 | ≤ 10 | 
5 | CCCS(=O)(=O)Nc1ccc(F)c(C(=O)c2c[nH]c3ncc(S(C)(=O)=O)cc23)c1F [P-2173, Propane-1-sulfonic acid [2,4-difluoro-3-(5-methanesulfonyl-1H-pyrrolo[2,3-b]pyridine-3-carbonyl)-phenyl]-amide] |  |  | ≤ 10 | ≤ 10
6 | CCC(C)S(=O)(=O)Nc1cccc(C(=O)c2c[nH]c3ncc(C#N)cc23)c1F (centres unmarked) [P-2413, Butane-2-sulfonic acid [3-(5-cyano-1H-pyrrolo[2,3-b]pyridine-3-carbonyl)-2-fluoro-phenyl]-amide] |  | ≤ 10 | ≤ 10 | ≤ 10
7 | N#Cc1cnc2[nH]cc(C(=O)c3cccc(NS(=O)(=O)Cc4ccccn4)c3F)c2c1 [P-2098, N-[3-(5-Cyano-1H-pyrrolo[2,3-b]pyridine-3-carbonyl)-2-fluoro-phenyl]-C-pyridin-2-yl-methanesulfonamide] |  |  | ≤ 10 | 
8 | N#Cc1cnc2[nH]cc(C(=O)c3c(F)ccc(NS(=O)(=O)Cc4ccncc4)c3F)c2c1 [P-2095, N-[3-(5-Cyano-1H-pyrrolo[2,3-b]pyridine-3-carbonyl)-2,4-difluoro-phenyl]-C-pyridin-4-yl-methanesulfonamide] | ≤ 10 |  | ≤ 10 | 
9 | CCn1cc(S(=O)(=O)Nc2cccc(C(=O)c3c[nH]c4ncc(C#N)cc34)c2F)cn1 [P-2089, 1-Ethyl-1H-pyrazole-4-sulfonic acid [3-(5-cyano-1H-pyrrolo[2,3-b]pyridine-3-carbonyl)-2-fluoro-phenyl]-amide] | ≤ 10 | ≤ 10 | ≤ 10 | 
10 | CCCS(=O)(=O)Nc1ccc(F)c(C(=O)c2c[nH]c3ncc(-c4ccc(S(=O)(=O)N5CCCCC5)cc4)cc23)c1F [P-2186, Propane-1-sulfonic acid (2,4-difluoro-3-{5-[4-(piperidine-1-sulfonyl)-phenyl]-1H-pyrrolo[2,3-b]pyridine-3-carbonyl}-phenyl)-amide] | ≤ 10 |  | ≤ 10 | ≤ 10
11 | N#Cc1cnc2[nH]cc(C(=O)c3cccc(NS(=O)(=O)CCC(F)(F)F)c3F)c2c1 [P-2415, 3,3,3-Trifluoro-propane-1-sulfonic acid [3-(5-cyano-1H-pyrrolo[2,3-b]pyridine-3-carbonyl)-2-fluoro-phenyl]-amide] |  | ≤ 10 | ≤ 10 | ≤ 10
12 | Cc1oncc1S(=O)(=O)Nc1ccc(F)c(C(=O)c2c[nH]c3ncc(C#N)cc23)c1F [P-2081, 5-Methyl-isoxazole-4-sulfonic acid [3-(5-cyano-1H-pyrrolo[2,3-b]pyridine-3-carbonyl)-2,4-difluoro-phenyl]-amide] | ≤ 10 | ≤ 10 | ≤ 10 | 
13 | COc1ccc(S(=O)(=O)Nc2cccc(C(=O)c3c[nH]c4ncc(C#N)cc34)c2F)cn1 [P-2092, 6-Methoxy-pyridine-3-sulfonic acid [3-(5-cyano-1H-pyrrolo[2,3-b]pyridine-3-carbonyl)-2-fluoro-phenyl]-amide] |  | ≤ 10 | ≤ 10 | 
14 | N#Cc1cnc2[nH]cc(C(=O)c3cccc(NS(=O)(=O)Cc4cccnc4)c3F)c2c1 [P-2096, N-[3-(5-Cyano-1H-pyrrolo[2,3-b]pyridine-3-carbonyl)-2-fluoro-phenyl]-C-pyridin-3-yl-methanesulfonamide] | ≤ 10 |  | ≤ 10 | 
15 | O=C(c1c(F)ccc(NS(=O)(=O)c2ccc(C(F)(F)F)cc2)c1F)c1c[nH]c2ncc(C3CC3)cc12 [P-2483, N-[3-(5-Cyclopropyl-1H-pyrrolo[2,3-b]pyridine-3-carbonyl)-2,4-difluoro-phenyl]-4-trifluoromethyl-benzenesulfonamide] | ≤ 10 | ≤ 10 |  | 
16 | CS(=O)(=O)Nc1ccc(F)c(C(=O)c2c[nH]c3ncc(C#N)cc23)c1F [P-2294, N-[3-(5-Cyano-1H-pyrrolo[2,3-b]pyridine-3-carbonyl)-2,4-difluoro-phenyl]-methanesulfonamide] | ≤ 10 | ≤ 10 | ≤ 10 | 
17 | CCCS(=O)(=O)Nc1ccc(F)c(C(=O)c2c[nH]c3ncc(-c4cnc(N5CCOCC5)nc4)cc23)c1F [P-2197, Propane-1-sulfonic acid {2,4-difluoro-3-[5-(2-morpholin-4-yl-pyrimidin-5-yl)-1H-pyrrolo[2,3-b]pyridine-3-carbonyl]-phenyl}-amide] | ≤ 10 |  | ≤ 10 | ≤ 10
18 | COc1ncc(-c2cnc3[nH]cc(C(=O)c4cccc(NS(=O)(=O)N(C)C)c4F)c3c2)cn1 [P-2424, N,N-dimethylamino-sulfonic acid {2-fluoro-3-[5-(2-methoxy-pyrimidin-5-yl)-1H-pyrrolo[2,3-b]pyridine-3-carbonyl]-phenyl}-amide] | ≤ 10 | ≤ 10 | ≤ 10 | 
19 | CC(C)S(=O)(=O)Nc1cccc(C(=O)c2c[nH]c3ncc(C#N)cc23)c1F [P-2411, Propane-2-sulfonic acid [3-(5-cyano-1H-pyrrolo[2,3-b]pyridine-3-carbonyl)-2-fluoro-phenyl]-amide] |  | ≤ 10 | ≤ 10 | 
20 | CCCS(=O)(=O)Nc1ccc(F)c(C(=O)c2c[nH]c3ncc(-c4cnc(SC)nc4)cc23)c1F [P-2189, Propane-1-sulfonic acid {2,4-difluoro-3-[5-(2-methylsulfanyl-pyrimidin-5-yl)-1H-pyrrolo[2,3-b]pyridine-3-carbonyl]-phenyl}-amide] | ≤ 10 |  | ≤ 10 | ≤ 10

Results, then the compound that gave them:

Row | IC50 (Kdr) [µM] | IC50 (C-Raf) [µM] | IC50 (B-Raf V600E) [µM] | IC50 (B-Raf) [µM] | Compound
21 | ≤ 10 |  |  |  | O=C(c1c(F)ccc(NS(=O)(=O)C2(C(=O)O)CC2)c1F)c1c[nH]c2ncc(Br)cc12 [P-2349, 1-[3-(5-Bromo-1H-pyrrolo[2,3-b]pyridine-3-carbonyl)-2,4-difluoro-phenylsulfamoyl]-cyclopropanecarboxylic acid]
22 | ≤ 10 |  |  |  | CN(C)S(=O)(=O)Nc1cccc(C(=O)c2c[nH]c3ncc(Cl)cc23)c1 [P-2470, N,N-dimethylamino-sulfonic acid [3-(5-chloro-1H-pyrrolo[2,3-b]pyridine-3-carbonyl)-phenyl]-amide]
23 | ≤ 10 |  | ≤ 10 |  | Cc1c(S(=O)(=O)Nc2ccc(F)c(C(=O)c3c[nH]c4ncc(C#N)cc34)c2F)cnn1C [P-2082, 1,5-Dimethyl-1H-pyrazole-4-sulfonic acid [3-(5-cyano-1H-pyrrolo[2,3-b]pyridine-3-carbonyl)-2,4-difluoro-phenyl]-amide]
24 | ≤ 10 |  | ≤ 10 |  | N#Cc1cnc2[nH]cc(C(=O)c3c(F)ccc(NS(=O)(=O)Cc4ccccn4)c3F)c2c1 [P-2093, N-[3-(5-Cyano-1H-pyrrolo[2,3-b]pyridine-3-carbonyl)-2,4-difluoro-phenyl]-C-pyridin-2-yl-methanesulfonamide]
25 |  | ≤ 10 | ≤ 10 | ≤ 10 | N#Cc1cnc2[nH]cc(C(=O)c3cccc(NS(=O)(=O)C4CCC4)c3F)c2c1 [P-2418, Cyclobutanesulfonic acid [3-(5-cyano-1H-pyrrolo[2,3-b]pyridine-3-carbonyl)-2-fluoro-phenyl]-amide]
26 |  | ≤ 10 | ≤ 10 | ≤ 10 | N#Cc1cnc2[nH]cc(C(=O)c3c(F)ccc(NS(=O)(=O)c4ccc(F)cc4)c3F)c2c1 [P-2028, N-[3-(5-Cyano-1H-pyrrolo[2,3-b]pyridine-3-carbonyl)-2,4-difluoro-phenyl]-4-fluoro-benzenesulfonamide]
27 |  | ≤ 10 | ≤ 10 | ≤ 10 | N#Cc1cnc2[nH]cc(C(=O)c3cccc(NS(=O)(=O)C4CCCCC4)c3F)c2c1 [P-2416, Cyclohexanesulfonic acid [3-(5-cyano-1H-pyrrolo[2,3-b]pyridine-3-carbonyl)-2-fluoro-phenyl]-amide]
28 |  | ≤ 10 | ≤ 10 | ≤ 10 | CC(C)CS(=O)(=O)Nc1cccc(C(=O)c2c[nH]c3ncc(C#N)cc23)c1F [P-2412, 2-Methyl-propane-1-sulfonic acid [3-(5-cyano-1H-pyrrolo[2,3-b]pyridine-3-carbonyl)-2-fluoro-phenyl]-amide]
29 |  | ≤ 10 | ≤ 10 |  | CCn1cc(S(=O)(=O)Nc2ccc(F)c(C(=O)c3c[nH]c4ncc(C#N)cc34)c2F)cn1 [P-2083, 1-Ethyl-1H-pyrazole-4-sulfonic acid [3-(5-cyano-1H-pyrrolo[2,3-b]pyridine-3-carbonyl)-2,4-difluoro-phenyl]-amide]
30 |  |  | ≤ 10 |  | Cc1c(S(=O)(=O)Nc2cccc(C(=O)c3c[nH]c4ncc(C#N)cc34)c2F)cnn1C [P-2091, 1,5-Dimethyl-1H-pyrazole-4-sulfonic acid [3-(5-cyano-1H-pyrrolo[2,3-b]pyridine-3-carbonyl)-2-fluoro-phenyl]-amide]
